5 compounds from patent US6342633B1, “O-benzyl oxime ether derivatives and their use as pesticides” (Bayer Aktiengesellschaft, priority 1993, dated 2002) can be followed below.

As for `CNC(=S)/C(=N/OC)c1ccccc1CO/N=C(\C)c1cccc(C(F)(F)F)c1` [Compound 4.51, N-methyl-2-[2-(methyl(3-trifluoromethylphenyl)oximinomethyl)phenyl]-2-methoximinothioacetamide], the melting point (usually the temperature of the solid-liquid transition) is 100 to 106 °C. Then `CNC(=S)/C(=N/OC)c1ccccc1CON=C(C)c1ccc(Cl)cc1` [Compound 4.10], with 88 to 89 °C; and `C/N=C(OC)/C(=N/OC)c1ccccc1CO/N=C(\C)c1ccc(Cl)cc1` [Example H-4, N,O-dimethyl-2-[2-(methyl(4-chlorophenyl)oximinomethyl)phenyl]2-methoximinoacetimidate], with 79 to 80 °C. To `[H]/N=C(OC)/C(=N/OC)c1ccccc1CON=C(C)c1ccc(Cl)cc1` [Compound 1.13] belongs 73 to 75 °C. In turn, `CO/N=C(N)/C(=N/OC)c1ccccc1CO/N=C(\C)c1ccc(Cl)cc1` [Compound 3.101] gave a melting point of 76 to 78 °C.
